Values joined by “and” are separate entries in the source; they are usually repeats but may differ in a detail not shown here. Equal entries are not always repeated. Inconclusive results and toxic doses are left out. No stated cut-off is given here; in the data, active means T/C of 150% or more; inactive means T/C below 125%.
System: L1210 leukemia ip in BDF1 mice, survival T/C
Assay: NCI In Vivo Anticancer Drug Screen. Data for tumor model L1210 Leukemia (intraperitoneal) in B6D2F1 (BDF1) mice
Details: endpoint: mean survival time, higher = longer survival
In short: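 Transplanted-tumor mice were given test agent; controls received vehicle only. Survival readings from the two groups were divided (treated over control).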

[1] = dose: 100.0 mg/kg/injection, schedule: Q04DX002 (ip), vehicle: saline
[2] = dose: 200.0 mg/kg/injection, schedule: Q04DX002 (ip), vehicle: saline
[3] = dose: 100.0 mg/kg/injection, schedule: Q01DX001 (ip), vehicle: Klucel (hydroxypropylcellulose) (HPC)
[4] = dose: 100.0 mg/kg/injection, schedule: Q04DX003 (ip), vehicle: other
[5] = dose: 200.0 mg/kg/injection, schedule: Q01DX001 (ip), vehicle: Klucel (hydroxypropylcellulose) (HPC)
[6] = dose: 200.0 mg/kg/injection, schedule: Q04DX003 (ip), vehicle: other
[7] = dose: 400.0 mg/kg/injection, schedule: Q04DX003 (ip), vehicle: other
[8] = dose: 100.0 mg/kg/injection, schedule: Q04DX003 (ip), vehicle: saline with Tween-80
[9] = dose: 200.0 mg/kg/injection, schedule: Q04DX003 (ip), vehicle: saline with Tween-80
[10] = dose: 400.0 mg/kg/injection, schedule: Q04DX003 (ip), vehicle: saline with Tween-80
[11] = dose: 100.0 mg/kg/injection, schedule: Q01DX009 (ip), vehicle: Klucel (hydroxypropylcellulose) (HPC)

Measured: T/C

NC(N)=N/N=C\c1ccc2c(c1)OCO2
inactive: dose: 15.0 mg/kg/injection, schedule: Q01DX Z (ip), vehicle: saline 98 % of control | dose: 30.0 mg/kg/injection, schedule: Q01DX Z (ip), vehicle: saline 88 % of control | dose: 30.0 mg/kg/injection, schedule: Q01DX Z (oral), vehicle: saline 92 % of control | dose: 60.0 mg/kg/injection, schedule: Q01DX Z (ip), vehicle: saline 92 % of control | dose: 60.0 mg/kg/injection, schedule: Q01DX Z (oral), vehicle: saline 94 % of control | dose: 120.0 mg/kg/injection, schedule: Q01DX Z (oral), vehicle: saline 97 % of control

CC(C)(C)C1(C)CC1(Br)Br (configuration not stated)
inactive: dose: 50.0 mg/kg/injection, schedule: Q01DX009 (ip), vehicle: saline 98 % of control | dose: 100.0 mg/kg/injection, schedule: Q01DX009 (ip), vehicle: saline 101 % of control | dose: 200.0 mg/kg/injection, schedule: Q01DX009 (ip), vehicle: saline 98 % of control

Cc1ccc(Nc2c3ccccc3nc3ccccc23)cc1
inactive: dose: 18.0 mg/kg/injection, schedule: Q01DX009 (ip), vehicle: saline with Tween-80 100 % of control | dose: 37.5 mg/kg/injection, schedule: Q01DX009 (ip), vehicle: saline with Tween-80 110 % of control | dose: 40.0 mg/kg/injection, schedule: Q04DX003 (ip), vehicle: saline with Tween-80 96 % of control | dose: 65.0 mg/kg/injection, schedule: Q04DX003 (ip), vehicle: saline with Tween-80 106 % of control | dose: 75.0 mg/kg/injection, schedule: Q01DX001 (ip), vehicle: saline 100 % of control (2×) and 105 % of control | dose: 75.0 mg/kg/injection, schedule: Q01DX009 (ip), vehicle: saline with Tween-80 113 % of control | dose: 75.0 mg/kg/injection, schedule: Q04DX003 (ip), vehicle: saline with Tween-80 100 % of control | dose: 95.0 mg/kg/injection, schedule: Q04DX003 (ip), vehicle: saline with Tween-80 123 % of control | dose: 150.0 mg/kg/injection, schedule: Q01DX001 (ip), vehicle: saline 118 % of control | dose: 150.0 mg/kg/injection, schedule: Q04DX003 (ip), vehicle: saline with Tween-80 107 % of control and 88 % of control | dose: 225.0 mg/kg/injection, schedule: Q04DX003 (ip), vehicle: saline with Tween-80 118 % of control

O=C(Nc1ccc(Cl)c(C(F)(F)F)c1)Oc1ccccn1
inactive: dose: 12.5 mg/kg/injection, schedule: Q01DX009 (ip), vehicle: saline with Tween-80 101 % of control | dose: 25.0 mg/kg/injection, schedule: Q01DX009 (ip), vehicle: saline with Tween-80 99 % of control | dose: 50.0 mg/kg/injection, schedule: Q01DX009 (ip), vehicle: saline with Tween-80 92 % of control | dose: 100.0 mg/kg/injection, schedule: Q01DX009 (ip), vehicle: saline with Tween-80 93 % of control

CC12CCC(C1)C(C)(C)C2OC(=O)c1ccccc1C(=O)O (configuration not stated)
inactive: dose: 50.0 mg/kg/injection, schedule: Q01DX001 (ip), vehicle: carboxymethylcellulose (CMC) 103 % of control | dose: 100.0 mg/kg/injection, schedule: Q01DX001 (ip), vehicle: carboxymethylcellulose (CMC) 113 % of control | dose: 200.0 mg/kg/injection, schedule: Q01DX001 (ip), vehicle: carboxymethylcellulose (CMC) 102 % of control | dose: 400.0 mg/kg/injection, schedule: Q01DX001 (ip), vehicle: carboxymethylcellulose (CMC) 103 % of control

CNCCCCOC
inactive: [1] 117 % of control | [2] 104 % of control

O=C(Oc1ccccc1)c1ccc2ccccc2c1O
inactive: dose: 100.0 mg/kg/injection, schedule: Q04DX002 (ip), vehicle: Klucel (hydroxypropylcellulose) (HPC) 100 % of control | dose: 200.0 mg/kg/injection, schedule: Q04DX002 (ip), vehicle: Klucel (hydroxypropylcellulose) (HPC) 91 % of control | dose: 400.0 mg/kg/injection, schedule: Q04DX002 (ip), vehicle: Klucel (hydroxypropylcellulose) (HPC) 100 % of control

CC(=O)c1ccc(N=C=O)cc1
inactive: dose: 400.0 mg/kg/injection, schedule: Q01DX001 (ip), vehicle: saline with Tween-80 95 % of control

O=C(Nc1ccccc1)c1ccc2c(c1)C(=O)N(c1ccccc1)C2=O
inactive: [1] 90 % of control | [2] 87 % of control

O=C(CC1OC1c1ccccc1)c1ccccc1 (configuration not stated)
inactive: dose: 50.0 mg/kg/injection, schedule: Q01DX001 (ip), vehicle: Klucel (hydroxypropylcellulose) (HPC) 110 % of control | [3] 100 % of control | [4] 99 % of control | [5] 102 % of control | [6] 94 % of control | [7] 101 % of control

CC(=O)Oc1ccc(OC(C)=O)c2c1C=CC=CC2
inactive: [8] 104 % of control | [9] 86 % of control | [10] 94 % of control

BrC1(Br)C23CC=CCC12CCCC3 (configuration not stated)
inactive: dose: 100.0 mg/kg/injection, schedule: Q04DX003 (ip), vehicle: saline 95 % of control | dose: 200.0 mg/kg/injection, schedule: Q04DX003 (ip), vehicle: saline 100 % of control | dose: 400.0 mg/kg/injection, schedule: Q04DX003 (ip), vehicle: saline 105 % of control

CC(=O)NCc1cc(C)c(C)cc1C
inactive: [11] 100 % of control | dose: 100.0 mg/kg/injection, schedule: Q04DX003 (ip), vehicle: Klucel (hydroxypropylcellulose) (HPC) 101 % of control | dose: 200.0 mg/kg/injection, schedule: Q01DX009 (ip), vehicle: Klucel (hydroxypropylcellulose) (HPC) 104 % of control | dose: 200.0 mg/kg/injection, schedule: Q04DX003 (ip), vehicle: Klucel (hydroxypropylcellulose) (HPC) 97 % of control | dose: 400.0 mg/kg/injection, schedule: Q01DX009 (ip), vehicle: Klucel (hydroxypropylcellulose) (HPC) 96 % of control | dose: 400.0 mg/kg/injection, schedule: Q04DX003 (ip), vehicle: Klucel (hydroxypropylcellulose) (HPC) 109 % of control

CC1(C)CCOC(C2OCCC(C)(C)O2)O1 (configuration not stated)
inactive: dose: 50.0 mg/kg/injection, schedule: Q01DX009 (ip), vehicle: acetone 113 % of control | dose: 100.0 mg/kg/injection, schedule: Q01DX009 (ip), vehicle: acetone 93 % of control | dose: 200.0 mg/kg/injection, schedule: Q01DX009 (ip), vehicle: acetone 98 % of control

N#CCC(c1ccccc1)C(C#N)c1ccccc1 (configuration not stated)
inactive: dose: 75.0 mg/kg/injection, schedule: Q01DX001 (ip), vehicle: carboxymethylcellulose (CMC) 97 % of control | dose: 150.0 mg/kg/injection, schedule: Q01DX001 (ip), vehicle: carboxymethylcellulose (CMC) 93 % of control

CCCCCCCc1c(C)[nH]c2ccccc2c1=O
inactive: [11] 86 % of control | [4] 98 % of control | [6] 94 % of control | [7] 91 % of control

CC(Cc1ccccc1)n1c(-c2ccccc2)c[n+]2ccccc12 (configuration not stated)
inactive: dose: 1.17 mg/kg/injection, schedule: Q01DX001 (ip), vehicle: other 101 % of control | dose: 2.34 mg/kg/injection, schedule: Q01DX001 (ip), vehicle: other 102 % of control | dose: 4.69 mg/kg/injection, schedule: Q01DX001 (ip), vehicle: other 102 % of control

CC(=O)OCc1c[n+]([O-])c(C)c(OC(C)=O)c1COC(C)=O
inactive: dose: 25.0 mg/kg/injection, schedule: Q04DX003 (ip), vehicle: saline 101 % of control | dose: 50.0 mg/kg/injection, schedule: Q04DX003 (ip), vehicle: saline 101 % of control

CC1(C)C2CCC1(C)C(/C=N/NC(N)=O)C2 (configuration not stated)
inactive: [3] 94 % of control | [5] 102 % of control | dose: 400.0 mg/kg/injection, schedule: Q01DX001 (ip), vehicle: Klucel (hydroxypropylcellulose) (HPC) 105 % of control

O=C(NCCCl)NC1C(O)CCCC1O (configuration not stated)
inactive: dose: 100.0 mg/kg/injection, schedule: Q01DX001 (ip), vehicle: saline 103 % of control | dose: 200.0 mg/kg/injection, schedule: Q01DX001 (ip), vehicle: saline 97 % of control | dose: 400.0 mg/kg/injection, schedule: Q01DX001 (ip), vehicle: saline 103 % of control

CC(=O)CC(=O)Nc1ccc(N=Nc2ccccc2)cc1
inactive: [8] 93 % of control | [9] 91 % of control | [10] 91 % of control

Source: PubChem BioAssay AID248 (DTP/NCI, 2004)
